One experiment has as its target CRBN-DDB1 (Homo sapiens (Human), UniProt Q96SW2). Description: Compound binding to CRBN by HTRF assay. In short, it runs like this: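 HTRF displacement of Cy5-thalidomide probe (100 nM) from His-tagged CRBN-DDB1 (2.5 nM) with anti-His terbium cryptate, in HEPES/NaCl/TCEP/EDTA/Tween20 buffer; 11-point 1:3 dilution series, 30 min at ambient temperature. Signal (665/620 nm) normalized to lenalidomide and DMSO controls; EC50 fitted, Ki by Cheng-Prusoff from geometric mean EC50.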
For orientation: In TR-FRET formats the signal depends on donor and acceptor labels being close together.

A further experiment has as its target NEK7 (Homo sapiens (Human), UniProt Q8TDX7+Q96SW2). Briefly: NEK7 NanoBiT degradation assay in Cal51 NEK7 NanoBiT cell line. The format is cell-based. To be noted: Cal51 NEK7 NanoBiT cells, 24 hours; for Dmax: CAL-51. In short, it runs like this: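 Cal51 cells with CRISPR knock-in HiBiT-tagged endogenous NEK7 plus stable LgBiT, in live-cell Endurazine medium, seeded 16 h before dosing. Compounds at final 1 μM to 0.05 nM for 24 h at 37 °C, then luminescence read. Response normalized to plate controls and fitted with a 4-parameter logistic giving EC50.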

The mark [1] stands for this setting: NEK7 degradation, read-out: NanoBiT Dmax.
The mark [2] stands for this setting: NEK7 degradation, read-out: NanoBiT DC50.

Read-outs that look alike come from different tables or passages of the source. Where only a bound is given, the exact number is not on record here.

Chain of CRBN-DDB1 (Q96SW2 whole entry): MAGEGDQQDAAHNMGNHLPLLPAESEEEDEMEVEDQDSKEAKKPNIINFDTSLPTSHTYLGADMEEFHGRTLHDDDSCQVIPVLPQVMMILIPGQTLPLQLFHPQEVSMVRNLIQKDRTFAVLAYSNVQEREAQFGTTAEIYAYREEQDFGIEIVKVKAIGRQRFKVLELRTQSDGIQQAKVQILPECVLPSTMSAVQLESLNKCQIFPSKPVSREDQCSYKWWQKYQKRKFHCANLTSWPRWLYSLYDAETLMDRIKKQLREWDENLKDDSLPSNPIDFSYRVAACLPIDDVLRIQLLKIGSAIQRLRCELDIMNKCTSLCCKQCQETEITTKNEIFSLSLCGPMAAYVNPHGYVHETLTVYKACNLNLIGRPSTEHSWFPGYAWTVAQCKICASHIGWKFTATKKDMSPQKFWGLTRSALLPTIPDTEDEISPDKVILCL
Chain of CRBN-DDB1 (Q16531 whole entry partner): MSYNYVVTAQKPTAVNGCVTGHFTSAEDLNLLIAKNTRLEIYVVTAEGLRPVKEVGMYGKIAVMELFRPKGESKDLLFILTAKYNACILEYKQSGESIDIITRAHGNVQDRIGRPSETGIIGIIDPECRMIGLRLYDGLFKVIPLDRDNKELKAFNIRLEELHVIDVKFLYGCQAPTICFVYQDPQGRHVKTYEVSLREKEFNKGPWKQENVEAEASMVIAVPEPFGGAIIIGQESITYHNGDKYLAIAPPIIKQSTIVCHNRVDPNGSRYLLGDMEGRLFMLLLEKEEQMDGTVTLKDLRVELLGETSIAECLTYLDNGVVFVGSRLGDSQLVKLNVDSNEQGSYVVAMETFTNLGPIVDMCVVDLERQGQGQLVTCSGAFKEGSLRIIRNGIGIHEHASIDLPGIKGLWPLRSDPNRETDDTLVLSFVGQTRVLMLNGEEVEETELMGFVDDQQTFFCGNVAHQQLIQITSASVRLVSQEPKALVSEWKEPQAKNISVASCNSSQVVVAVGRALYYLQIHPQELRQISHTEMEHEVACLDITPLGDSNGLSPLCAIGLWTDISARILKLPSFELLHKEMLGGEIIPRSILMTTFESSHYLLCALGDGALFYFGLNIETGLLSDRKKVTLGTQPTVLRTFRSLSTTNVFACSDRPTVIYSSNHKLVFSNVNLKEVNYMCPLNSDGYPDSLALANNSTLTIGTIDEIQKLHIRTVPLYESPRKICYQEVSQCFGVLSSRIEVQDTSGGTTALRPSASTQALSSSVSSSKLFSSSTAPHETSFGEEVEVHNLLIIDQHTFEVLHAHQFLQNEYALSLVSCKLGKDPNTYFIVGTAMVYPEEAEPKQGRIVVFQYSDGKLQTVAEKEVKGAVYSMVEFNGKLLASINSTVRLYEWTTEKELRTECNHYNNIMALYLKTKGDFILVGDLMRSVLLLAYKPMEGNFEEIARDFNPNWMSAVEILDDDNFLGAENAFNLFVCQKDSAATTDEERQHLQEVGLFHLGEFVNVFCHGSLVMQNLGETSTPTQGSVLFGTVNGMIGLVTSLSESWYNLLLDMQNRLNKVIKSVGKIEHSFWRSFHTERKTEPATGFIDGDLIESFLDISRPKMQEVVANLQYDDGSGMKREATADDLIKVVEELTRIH
Chain of NEK7 (Q8TDX7 whole entry): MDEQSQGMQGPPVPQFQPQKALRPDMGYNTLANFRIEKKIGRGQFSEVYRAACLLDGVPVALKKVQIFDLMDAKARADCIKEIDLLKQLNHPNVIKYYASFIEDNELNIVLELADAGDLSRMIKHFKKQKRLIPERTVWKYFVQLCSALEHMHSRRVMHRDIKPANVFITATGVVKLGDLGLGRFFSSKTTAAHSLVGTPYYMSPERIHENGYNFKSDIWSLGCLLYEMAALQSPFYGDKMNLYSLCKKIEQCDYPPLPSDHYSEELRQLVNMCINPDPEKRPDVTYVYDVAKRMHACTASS
Chain of NEK7 (Q96SW2 whole entry): as the sequence (Q96SW2 whole entry) above
Chain of NEK7 (Q16531 2-1140 partner): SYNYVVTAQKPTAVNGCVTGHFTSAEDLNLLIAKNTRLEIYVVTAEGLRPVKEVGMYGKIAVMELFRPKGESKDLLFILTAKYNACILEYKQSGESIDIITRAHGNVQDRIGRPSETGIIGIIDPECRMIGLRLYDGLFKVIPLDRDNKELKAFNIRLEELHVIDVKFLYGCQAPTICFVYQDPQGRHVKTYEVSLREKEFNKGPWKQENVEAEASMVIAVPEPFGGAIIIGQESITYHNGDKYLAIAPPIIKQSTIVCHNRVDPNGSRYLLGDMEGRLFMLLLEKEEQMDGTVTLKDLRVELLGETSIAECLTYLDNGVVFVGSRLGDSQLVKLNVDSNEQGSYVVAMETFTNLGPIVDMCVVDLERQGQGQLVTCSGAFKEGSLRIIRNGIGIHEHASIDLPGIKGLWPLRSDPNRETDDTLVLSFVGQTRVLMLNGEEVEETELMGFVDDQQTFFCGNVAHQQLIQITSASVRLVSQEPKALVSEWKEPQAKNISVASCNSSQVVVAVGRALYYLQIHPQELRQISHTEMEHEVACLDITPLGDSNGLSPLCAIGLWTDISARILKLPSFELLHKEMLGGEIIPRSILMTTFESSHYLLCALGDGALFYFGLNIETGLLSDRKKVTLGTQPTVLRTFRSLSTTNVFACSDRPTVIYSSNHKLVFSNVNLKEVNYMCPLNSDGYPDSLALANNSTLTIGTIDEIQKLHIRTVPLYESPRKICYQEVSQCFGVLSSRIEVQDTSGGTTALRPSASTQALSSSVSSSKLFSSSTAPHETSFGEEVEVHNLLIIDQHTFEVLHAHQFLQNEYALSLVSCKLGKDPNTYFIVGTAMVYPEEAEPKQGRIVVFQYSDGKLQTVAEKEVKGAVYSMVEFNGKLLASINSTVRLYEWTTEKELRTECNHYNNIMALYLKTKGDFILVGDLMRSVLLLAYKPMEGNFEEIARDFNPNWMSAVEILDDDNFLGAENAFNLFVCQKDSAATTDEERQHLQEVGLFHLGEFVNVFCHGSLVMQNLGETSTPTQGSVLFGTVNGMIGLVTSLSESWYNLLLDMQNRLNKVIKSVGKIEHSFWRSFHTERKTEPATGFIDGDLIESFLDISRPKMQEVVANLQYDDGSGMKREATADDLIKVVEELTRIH

For orientation: EC50 means the concentration at which the effect is half-maximal. The term Dmax denotes the greatest extent of degradation seen. What is called DC50 is the concentration at which degradation of the target reaches its halfway point. For `CC(C)(C(=O)NCc1cc(Cl)c(C2CCC(=O)NC2=O)c(Cl)c1)N1CCc2ccccc21` (stereo not drawn) [Compound 166, N-(3,5-dichloro-4-(2,6-dioxopiperidin-3-yl)benzyl)-2-(indolin-1-yl)-2-methylpropanamide], the EC50 at CRBN-DDB1 was 90 nM; on CRBN-DDB1 (HTRF class, Cereblon binding), at most 100 nM. Moreover, the values for the Dmax on NEK7 (read-out: NEK7 NanoBiT Dmax) and at NEK7 (setting [1]) were 56% and 50 to 75%, respectively. Further, the DC50 on NEK7 (read-out: NEK7 NanoBiT DC50) is 203 nM; at NEK7 (setting [2]), 100 to 1000 nM.
For the compound `Cc1ccc(C(C)(C)C(=O)NCc2cc(Cl)c(C3CCC(=O)NC3=O)c(Cl)c2)nc1` (stereo not drawn) [Compound 89], the EC50 on CRBN-DDB1 is 120 nM; at CRBN-DDB1 (HTRF class, Cereblon binding), 100 to 1000 nM. Also, the Dmax was 92% on NEK7 (read-out: NEK7 NanoBiT Dmax) and over 75% on NEK7 (setting [1]). Further, the values for the DC50 on NEK7 (read-out: NEK7 NanoBiT DC50) and on NEK7 (setting [2]) were 6 nM and at most 100 nM, respectively.
Regarding `CN1Cc2ccccc2CC1C(=O)NCc1cc(Cl)c(C2CCC(=O)NC2=O)c(Cl)c1` (stereo not drawn) [Compound 48], the EC50 on CRBN-DDB1 was 130 nM; on CRBN-DDB1 (HTRF class, Cereblon binding) it was 100 to 1000 nM. Also, the Dmax was 66% at NEK7 (read-out: NEK7 NanoBiT Dmax) and 50 to 75% at NEK7 (setting [1]). Besides, the results for the DC50 on NEK7 (read-out: NEK7 NanoBiT DC50) and at NEK7 (setting [2]) were 54 nM and at most 100 nM, respectively.
For `CC(C)(C(=O)NCc1cc(Cl)c(C2CCC(=O)NC2=O)c(Cl)c1)c1cnco1` (stereo not drawn) [Compound 122], the EC50 is 230 nM on CRBN-DDB1 and 100 to 1000 nM on CRBN-DDB1 (HTRF class, Cereblon binding). Also, the Dmax on NEK7 (read-out: NEK7 NanoBiT Dmax) is 73%; on NEK7 (setting [1]), 50 to 75%. The DC50 at NEK7 (read-out: NEK7 NanoBiT DC50) was 56 nM; at NEK7 (setting [2]), at most 100 nM.
Turning to `COCc1cnc(C(C)(C)C(=O)NCc2cc(Cl)c(C3CCC(=O)NC3=O)c(Cl)c2)nc1` (stereo not drawn) [Compound 183], the EC50 is 370 nM at CRBN-DDB1 and 100 to 1000 nM on CRBN-DDB1 (HTRF class, Cereblon binding). Also, the maximal degradation (Dmax) on NEK7 (read-out: NEK7 NanoBiT Dmax) was 71%; on NEK7 (setting [1]), 50 to 75%. The DC50 was 56 nM at NEK7 (read-out: NEK7 NanoBiT DC50) and at most 100 nM at NEK7 (setting [2]).
`CC(C)(C(=O)NCc1cc(Cl)c(C2CCC(=O)NC2=O)c(Cl)c1)c1ncc(C(=O)O)cn1` (stereo not drawn) [Compound 235, 2-(1-((3,5-dichloro-4-(2,6-dioxopiperidin-3-yl)benzyl)amino)-2-methyl-1-oxopropan-2-yl)pyrimidine-5-carboxylic acid]: the EC50 on CRBN-DDB1 was 560 nM; on CRBN-DDB1 (HTRF class, Cereblon binding), 100 to 1000 nM. In addition, the Dmax is 11% on NEK7 (read-out: NEK7 NanoBiT Dmax) and at most 50% at NEK7 (setting [1]). Moreover, the DC50 at NEK7 (read-out: NEK7 NanoBiT DC50) is 1000 nM; on NEK7 (setting [2]), over 1000 nM.
`COc1nc(C(C)(C)C(=O)NCc2cc(Cl)c(C3CCC(=O)NC3=O)c(Cl)c2)ncc1C` (stereo not drawn) [Compound 216]: the EC50 on CRBN-DDB1 was 100 nM; on CRBN-DDB1 (HTRF class, Cereblon binding), at most 100 nM. Also, the Dmax was 82% on NEK7 (read-out: NEK7 NanoBiT Dmax) and over 75% on NEK7 (setting [1]). In addition, the DC50 on NEK7 (read-out: NEK7 NanoBiT DC50) was 21 nM; on NEK7 (setting [2]), at most 100 nM.
In the case of `CC(C)(C(=O)NCc1cc(Cl)c(C2CCC(=O)NC2=O)c(Cl)c1)c1ccc(O)c(F)c1` (stereo not drawn) [Compound 80], the EC50 was 30 nM on CRBN-DDB1 and at most 100 nM on CRBN-DDB1 (HTRF class, Cereblon binding). Besides, the Dmax at NEK7 (read-out: NEK7 NanoBiT Dmax) was 97%; at NEK7 (setting [1]), over 75%. The results for the DC50 at NEK7 (read-out: NEK7 NanoBiT DC50) and at NEK7 (setting [2]) were 1 nM and at most 100 nM, respectively.
For `Cn1ncc(C(C)(C)C(=O)NCc2cc(Cl)c(C3CCC(=O)NC3=O)c(Cl)c2)cc1=O` (stereo not drawn) [Compound 9, N-(3,5-dichloro-4-(2,6-dioxopiperidin-3-yl)benzyl)-2-methyl-2-(1-methyl-6-oxo-1,6-dihydropyridazin-4-yl)propanamide], the EC50 at CRBN-DDB1 was 210 nM; on CRBN-DDB1 (HTRF class, Cereblon binding), 100 to 1000 nM. Also, the Dmax on NEK7 (read-out: NEK7 NanoBiT Dmax) was 85%; at NEK7 (setting [1]) it was over 75%. The DC50 on NEK7 (read-out: NEK7 NanoBiT DC50) is 22 nM; at NEK7 (setting [2]) it was at most 100 nM.
In the case of `CC(C)(O)c1ccc(C(C)(C)C(=O)NCc2cc(Cl)c(C3CCC(=O)NC3=O)c(Cl)c2)nn1` (stereo not drawn) [Compound 203], the EC50 was 200 nM on CRBN-DDB1 and 100 to 1000 nM on CRBN-DDB1 (HTRF class, Cereblon binding). Also, the Dmax on NEK7 (read-out: NEK7 NanoBiT Dmax) is 94%; at NEK7 (setting [1]) it was over 75%. In addition, the results for the DC50 on NEK7 (read-out: NEK7 NanoBiT DC50) and on NEK7 (setting [2]) were 4 nM and at most 100 nM, respectively.
`O=C1CCC(c2c(Cl)cc(CNC(=O)C3(c4ccncc4)CCCC3)cc2Cl)C(=O)N1` (stereo not drawn) [Compound 143, N-(3,5-dichloro-4-(2,6-dioxopiperidin-3-yl)benzyl)-1-(pyridin-4-yl)cyclopentane-1-carboxamide]: the EC50 on CRBN-DDB1 is 40 nM; at CRBN-DDB1 (HTRF class, Cereblon binding), at most 100 nM. Besides, the greatest degradation seen (Dmax) was 92% at NEK7 (read-out: NEK7 NanoBiT Dmax) and over 75% on NEK7 (setting [1]). Further, the DC50 is 3 nM on NEK7 (read-out: NEK7 NanoBiT DC50) and at most 100 nM at NEK7 (setting [2]).
Turning to `CC(C)(C(=O)NCc1cc(Cl)c(C2CCC(=O)NC2=O)c(Cl)c1)c1nccc(C(F)(F)F)n1` (stereo not drawn) [Compound 174], the EC50 at CRBN-DDB1 was 180 nM; at CRBN-DDB1 (HTRF class, Cereblon binding) it was 100 to 1000 nM. Further, the Dmax is 77% on NEK7 (read-out: NEK7 NanoBiT Dmax) and over 75% on NEK7 (setting [1]). For the same compound, the DC50 at NEK7 (read-out: NEK7 NanoBiT DC50) is 30 nM; at NEK7 (setting [2]), at most 100 nM.

These data come from patent US20250243180A1, “TARGETED PROTEIN DEGRADATION” (Monte Rosa Therapeutics AG, priority 2023, published 2025).
